# According to US20260207560A1, “PLURALITY OF GRANULES” (priority 2022, published 2026):
# Where “and” joins values, the source holds several entries; their conditions need not be identical. Equal entries are not always repeated.
# Experiment: Stability of active ingredient in volatile solvents, 20-28 hours at ambient (UPLC assay and impurities)
# Conditions: for Assay (as % of nominal): vial replicates
# Description: Note the incubation for the stability studies were all performed in a similar way: • All were put into 4 mL amber glass vials. • The Initial samples were not analysed as soon as sampled but instead were frozen at −20° C. until the point of analysing the incubated samples (e.g after 28 days at 25, 40 or 50° C.) to avoid degradation of the active ingredient.
# Chemical stability was determined by assay (results in Table 8) and quantification of potential active ingredient related substances (shown in
# Table 9). […] The objective was to establish whether any active ingredient-related substances might be increasing as a result of the ambient hold.
# [1] = 5% SLS aq., Initial, listed as active ingredient
# [2] = Ethanol absolute, 24 hour, listed as active ingredient
# [3] = Ethanol absolute, Initial, listed as active ingredient
# [4] = pH 3 citric acid buffer, 24 hour
# [5] = pH 3 citric acid buffer, 24 hour, listed as active ingredient
# [6] = pH 3 citric acid buffer, Initial
# [7] = pH 3 citric acid buffer, Initial, listed as active ingredient
smiles,measurement,setting,value
"CCS(=O)(=O)Nc1ccc2c(c1)nc(C(C)(C)C)n2CC1CCC(F)(F)CC1 [Compound I, N-(2-(tert-butyl)-1-((4,4-difluorocyclohexyl)methyl)-1H-benzimidazol-5-yl)ethanesulfonamide]","Impurity peak area, RRT 1.35*",[1],0.07 % of Total and 0.08 % of Total
same,"Impurity peak area, Total",[1],0.96 % of Total and 0.88 % of Total
same,"Impurity peak area, Total excluding artifact",[1],0.96 % of Total and 0.88 % of Total
same,Assay (as % of nominal),[1],105.0 % of nominal and 101.7 % of nominal
same,"Assay (as % of nominal), Mean","Ethanol Absolute, 24 hours ambient",99.0 % of nominal
same,Assay (as % of nominal),"Ethanol Absolute, 24 hours ambient, listed as active ingredient",100.2 % of nominal and 97.7 % of nominal
same,Assay (as % of nominal),"Ethanol Absolute, Initial",107.1 % of nominal
same,Assay (as % of nominal),"Ethanol Absolute, Initial, listed as active ingredient",90.6 % of nominal
same,"Impurity peak area, RRT 0.86^$ (PDA spectra unrelated to the active ingredient)","Ethanol absolute, 24 hour",<0.05 % of Total
same,"Impurity peak area, RRT 0.92","Ethanol absolute, 24 hour",<0.05 % of Total
same,"Impurity peak area, RRT 1.04*","Ethanol absolute, 24 hour",<0.05 % of Total
same,"Impurity peak area, RRT 1.23*","Ethanol absolute, 24 hour",0.07 % of Total
same,"Impurity peak area, RRT 1.24*","Ethanol absolute, 24 hour",<0.05 % of Total
same,"Impurity peak area, RRT 1.35*","Ethanol absolute, 24 hour",0.08 % of Total
same,"Impurity peak area, RRT 1.36*","Ethanol absolute, 24 hour",0.06 % of Total
same,"Impurity peak area, RRT 0.84*",[2],0.33 % of Total and 0.35 % of Total
same,"Impurity peak area, RRT 0.98* (first row)",[2],0.22 % of Total and 0.20 % of Total
same,"Impurity peak area, RRT 0.98* (second row)",[2],0.13 % of Total and 0.14 % of Total
same,"Impurity peak area, Total",[2],0.89 % of Total and 0.90 % of Total
same,"Impurity peak area, Total excluding artifact",[2],0.89 % of Total and 0.90 % of Total
same,"Assay (as % of nominal), Mean","Ethanol absolute, Initial",98.8 % of nominal
same,"Impurity peak area, RRT 0.38","Ethanol absolute, Initial",0.07 % of Total
same,"Impurity peak area, RRT 0.61","Ethanol absolute, Initial",0.08 % of Total
same,"Impurity peak area, RRT 0.62","Ethanol absolute, Initial",0.09 % of Total
same,"Impurity peak area, RRT 0.83","Ethanol absolute, Initial",0.18 % of Total
same,"Impurity peak area, RRT 0.92","Ethanol absolute, Initial",<0.05 % of Total
same,"Impurity peak area, RRT 0.98* (second row)","Ethanol absolute, Initial",0.12 % of Total
same,"Impurity peak area, RRT 1.24*","Ethanol absolute, Initial",<0.05 % of Total
same,"Impurity peak area, RRT 1.36*","Ethanol absolute, Initial",0.06 % of Total
same,"Impurity peak area, RRT 0.84*",[3],0.37 % of Total and 0.33 % of Total
same,"Impurity peak area, RRT 0.98* (first row)",[3],0.20 % of Total and 0.22 % of Total
same,"Impurity peak area, RRT 1.04*",[3],0.05 % of Total and <0.05 % of Total
same,"Impurity peak area, RRT 1.23*",[3],0.08 % of Total and 0.07 % of Total
same,"Impurity peak area, RRT 1.35*",[3],0.08 % of Total and 0.09 % of Total
same,"Impurity peak area, Total",[3],0.96 % of Total and 1.47 % of Total
same,"Impurity peak area, Total excluding artifact",[3],0.96 % of Total and 0.89 % of Total
same,Degradation of the active ingredient,"four volatile solvents, 20-28 hour hold at ambient temperature",no evidence for any active ingredient degradation
same,"Total impurities, highest in any case","four volatile solvents, initial and 20-28 hour ambient hold",≤ 1.17 % of the total peak area
same,"Impurity peak area, RRT 0.92",[4],0.06 % of Total
same,"Impurity peak area, RRT 1.04*",[4],0.09 % of Total
same,"Impurity peak area, RRT 1.23*",[4],0.10 % of Total
same,"Impurity peak area, RRT 0.38",[5],0.26 % of Total and 0.14 % of Total
same,"Impurity peak area, RRT 0.61",[5],0.07 % of Total and 0.10 % of Total
same,"Impurity peak area, RRT 0.62",[5],0.07 % of Total and 0.11 % of Total
same,"Impurity peak area, RRT 0.83",[5],0.30 % of Total and 0.16 % of Total
same,"Impurity peak area, RRT 0.84*",[5],0.30 % of Total and 0.37 % of Total
same,"Impurity peak area, RRT 0.98* (first row)",[5],0.22 % of Total and 0.21 % of Total
same,"Impurity peak area, RRT 0.98* (second row)",[5],0.13 % of Total and 0.14 % of Total
same,"Impurity peak area, RRT 1.24*",[5],<0.05 % of Total and 0.06 % of Total
same,"Impurity peak area, Total",[5],1.88 % of Total and 1.82 % of Total
same,"Impurity peak area, Total excluding artifact",[5],0.90 % of Total and 1.03 % of Total
same,"Assay (as % of nominal), Mean","pH 3 citric acid buffer, 24 hours ambient",95.8 % of nominal
same,Assay (as % of nominal),"pH 3 citric acid buffer, 24 hours ambient, listed as active ingredient",109.6 % of nominal and 82.1 % of nominal
same,"Assay (as % of nominal), Mean",[6],109.6 % of nominal
same,"Impurity peak area, RRT 0.38",[6],0.27 % of Total
same,"Impurity peak area, RRT 0.41",[6],0.26 % of Total
same,"Impurity peak area, RRT 0.61",[6],0.05 % of Total
same,"Impurity peak area, RRT 0.62",[6],0.06 % of Total
same,"Impurity peak area, RRT 0.83",[6],0.21 % of Total
same,"Impurity peak area, RRT 0.86^$ (PDA spectra unrelated to the active ingredient)",[6],<0.05 % of Total
same,"Impurity peak area, RRT 1.04*",[6],0.09 % of Total
same,"Impurity peak area, RRT 1.24*",[6],<0.05 % of Total
same,"Impurity peak area, RRT 0.92",[7],0.10 % of Total and 0.09 % of Total
same,"Impurity peak area, RRT 0.98* (first row)",[7],0.23 % of Total and 0.21 % of Total
same,"Impurity peak area, RRT 0.98* (second row)",[7],0.11 % of Total and 0.13 % of Total
same,"Impurity peak area, RRT 1.23*",[7],0.16 % of Total and 0.12 % of Total
same,"Impurity peak area, Total",[7],1.79 % of Total and 0.97 % of Total
same,"Impurity peak area, Total excluding artifact",[7],0.94 % of Total and 0.97 % of Total
same,Assay (as % of nominal),[7],108.8 % of nominal and 110.4 % of nominal
